Here are results for 21 molecules from patent publication US8846656B2, “Tetrahydropyrido-pyridine and tetrahydropyrido-pyrimidine compounds and use thereof as C5a receptor modulators” (Novartis AG, priority 2011, dated 2014).

Several values for one entry are separate records, joined by “and”; a condition that tells them apart may be missing. Identical values can stand only once.

One test deals with human C5aR (Homo sapiens (Human), UniProt P21730). The test can be described thus: FLIPR assay: inhibition of C5a-mediated calcium mobilization. It is filed as cell-based. The following applies: stable cell line over expressing human C5aR & Gα15, human C5a at EC50 (0.1-0.25 nM). As for the experimental part: Compounds were tested for their ability to inhibit C5a-mediated calcium mobilization using a stable cell line over expressing the human C5aR & the Gα15 protein on the FLIPR (Fluorescent Imaging Plate Reader) Tetra system. Cells were maintained in culture media containing DMEM (Dulbecco's Modified Eagle Medium) with 4.5 g/L glucose, 10% fetal bovine serum, 100 U/mL, 1× non-essential amino acid, and 250 μg/mL G418 (Geneticin). Prior to testing of compounds, cells were plated at 10,000 cells/well in clear bottom 384-well black plate, and incubated overnight at 37° C. with 5% CO2. On the day of experiment, culture media was removed, and replaced with assay buffer HBSS (Hanks' Balanced Salt Solution) with 20 mM HEPES (4-(2-hydroxyethyl)-1-piperazineethanesulfonic acid) and 0.1% BSA (bovine serum albumin) BSA containing calcium 5 dye (Molecular Devices) and 2.5 mM probenecid. After 1 hour incubation at 37° C., 5% CO2 for 60 min, cells were pre-incubated with compounds for 30 minutes at room temperature, in 1% DMSO (dimethyl sulfoxide).
human C5aR, sequence (P21730 whole entry): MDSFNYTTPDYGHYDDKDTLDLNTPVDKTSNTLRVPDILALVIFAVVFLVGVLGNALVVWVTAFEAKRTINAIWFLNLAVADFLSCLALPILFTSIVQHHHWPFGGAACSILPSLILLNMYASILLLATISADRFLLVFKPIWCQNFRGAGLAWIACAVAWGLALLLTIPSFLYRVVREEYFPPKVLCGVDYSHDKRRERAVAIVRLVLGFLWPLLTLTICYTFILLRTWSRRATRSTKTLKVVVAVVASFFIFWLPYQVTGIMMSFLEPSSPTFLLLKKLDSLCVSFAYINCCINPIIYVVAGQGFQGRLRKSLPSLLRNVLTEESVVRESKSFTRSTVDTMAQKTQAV
(Calcium assays in cells follow changes in intracellular calcium, usually with a dye or a luminescent sensor.)
By IC50 is commonly meant the midpoint of a concentration-inhibition curve. `Cc1cc(-c2c(C(C)C)ccc3[nH]ncc23)nc2c1CN(c1cc(C3CC3)nn1C)CC2` [Example 46-A, 6-(3-Cyclopropyl-1-methyl-1H-pyrazol-5-yl)-2-(5-isopropyl-1H-indazol-4-yl)-4-methyl-5,6,7,8-tetrahydro-1,6-naphthyridine]: the IC50 is 20 nM.

With `Cc1ccc(C(C)C)cc1N1CCc2nc(-c3cccc4[nH]cc(C)c34)nc(N3CCN(CC(N)=O)[C@H](C)C3)c2C1` [Example 24-J, (R)-2-(4-(6-(5-isopropyl-2-methylphenyl)-2-(3-methyl-1H-indol-4-yl)-5,6,7,8-tetrahydropyrido[4,3-d]pyrimidin-4-yl)-2-methylpiperazin-1-yl)acetamide], the IC50 is 8 nM.

With `CO[C@@H]1CN(c2nc(-c3c(C)ccc4[nH]nc(C)c34)nc3c2CN(c2c(Cl)c(C4CC4)nn2C)CC3)[C@H]1C` (racemic) [Example 69-I, 6-(4-chloro-3-cyclopropyl-1-methyl-1H-pyrazol-5-yl)-2-(3,5-dimethyl-1H-indazol-4-yl)-4-((trans)-methoxy-2-methylazetidin-1-yl)-5,6,7,8-tetrahydropyrido[4,3-d]pyrimidine], the IC50 was determined as 4 nM.

For the molecule `COCCCOc1nc(-c2c(C)cccc2C)nc2c1CN(c1cc(C(C)C)ccc1C)CC2` [Example 39-D, 2-(2,6-Dimethylphenyl)-6-(5-isopropyl-2-methylphenyl)-4-(3-methoxypropoxy)-5,6,7,8-tetrahydropyrido[4,3-d]pyrimidine], the IC50 is 74 nM.

In the case of `CNc1nc(-c2cccc3[nH]cc(C)c23)nc2c1CN(c1cc(C(C)C)ccc1C)CC2` [Example 17-AJ, 6-(5-isopropyl-2-methylphenyl)-N-methyl-2-(3-methyl-1H-indol-4-yl)-5,6,7,8-tetrahydropyrido[4,3-d]pyrimidin-4-amine], the IC50 turned out to be 94 nM.

As for `Cc1ccc(C(C)C)cc1N1CCc2nc(-c3cccc4[nH]cc(C)c34)nc(N3CCC(O)C(C)(C)C3)c2C1` (stereo not drawn) [Example 17-AI, l-(6-(5-isopropyl-2-methylphenyl)-2-(3-methyl-1H-indol-4-yl)-5,6,7,8-tetrahydropyrido[4,3-d]pyrimidin-4-yl)-3,3-dimethylpiperidin-4-ol], the IC50 came to 19 nM.

For the molecule `CC(=O)N1CCN(c2nc(-c3ccccc3C(F)(F)F)nc3c2CN(c2cc(C(C)C)ccc2C)CC3)[C@H](C)C1` [Example 25-F, (R)-1-(4-(6-(5-isopropyl-2-methylphenyl)-2-(2-(trifluoromethyl)phenyl)-5,6,7,8-tetrahydropyrido[4,3-d]pyrimidin-4-yl)-3-methylpiperazin-1-yl)ethanone], the IC50 amounted to 23 nM.

For `Cc1cccc(C)c1-c1nc2c(c(N3CCCC(C)(C)C3)n1)CN(c1cc(C(C)C)nn1C)CC2` [Example 16-I, 2-(2,6-Dimethylphenyl)-4-(3,3-dimethylpiperidin-1-yl)-6-(3-isopropyl-1-methyl-1H-pyrazol-5-yl)-5,6,7,8-tetrdhydropyrido[4,3-d]pyrimidine], the IC50 was determined as 48 nM.

Take `[2H]C1([2H])c2c(C)cc(-c3c(CC)cccc3CC)nc2CC(C)N1c1cc(C(C)C)ccc1C` (single isomer, unassigned) [Example 42-K, 2-(2,6-diethylphenyl)-6-(5-isopropyl-2-methylphenyl)-4,7-dimethyl-5,6,7,8-tetrahydro(5,5-^2H2)-1,6-naphthyridine]: the IC50 was found to be 217 nM.

Consider `Cc1ccc(C(C)C)cc1N1CCc2nc(-c3c(C4CC4)cnc4[nH]ccc34)nc(N3CCCC(C)(C)C3)c2C1` [Example 20-D, 2-(5-Cyclopropyl-1H-pyrrolo[2,3-b]pyridin-4-yl)-4-(3,3-dimethylpiperidin-1-yl)-6-(5-isopropyl-2-methylphenyl)-5,6,7,8-tetrahydropyrido[4,3-d]pyrimidine], for which the half-inhibitory concentration (IC50) stood at 164 nM.

For the molecule `CO[C@@H]1CCN(c2nc(-c3c(C)ccc4[nH]nc(C)c34)nc3c2CN(c2c(Cl)c(C4CC4)nn2C)CC3)CC1(C)C` [Example 55-G, (R)-6-(4-Chloro-3-cyclopropyl-1-methyl-1H-pyrazol-5-yl)-2-(3,5-dimethyl-1H-indazol-4-yl)-4-(4-methoxy-3,3-dimethylpiperidin-1-yl)-5,6,7,8-tetrahydropyrido[4,3-d]pyrimidine], the IC50 was 4 nM and 2 nM.

`[2H]C1([2H])c2c(C)cc(-c3c(C)cnc4[nH]ccc34)nc2CCN1c1cc(C(C)C)ccc1C` [Example 43-D, 6-(5-isopropyl-2-methylphenyl)-4-methyl-2-(5-methyl-1H-pyrrolo[2,3-b]pyridin-4-yl)-5,6,7,8-tetrahydro(5,5-^2H2)-1,6-naphthyridine]: the IC50 turned out to be 802 nM.

`CC(=O)N1CCN(c2nc(-c3cccc4[nH]cc(C)c34)nc3c2CN(c2cc(C(C)C)ccc2C)CC3)CC12CC2` [Example 53, 1-(7-(6-(5-Isopropyl-2-methylphenyl)-2-(3-methyl-1H-indol-4-yl)-5,6,7,8-tetrahydropyrido[4,3-d]pyrimidin-4-yl)-4,7-diazaspiro[2.5]octan-4-yl)ethanone]: the IC50 was 18 nM.

On to `CO[C@H]1CCN(c2nc(-c3cccc4[nH]cc(C)c34)nc3c2CN(c2cc(C4CC4)ccc2C)CC3)CC1(C)C` [Example 19-N, (S)-6-(5-cyclopropyl-2-methylphenyl)-4-(4-methoxy-3,3-dimethylpiperidin-1-yl)-2-(3-methyl-1H-indol-4-yl)-5,6,7,8-tetrahydropyrido[4,3-d]pyrimidine], for which the IC50 came out at 29 nM.

With `Cc1ccc(C)c(-c2nc3c(c(N4CCN(CC(N)=O)C[C@H]4C)n2)CN(c2cc(C(C)C)ccc2C)CC3)c1` [Example 24-C, (R)-2-(4-(2-(2,5-Dimethylphenyl)-6-(5-isopropyl-2-methylphenyl)-5,6,7,8-tetrahydropyrido[4,3-d]pyrimidin-4-yl)-3-methylpiperazin-1-yl)acetamide], the IC50 turned out to be 31 nM.

The test system of another test is CD11b. Briefly: Human whole blood CD11b up-regulation assay. The class given is cell-based. The following applies: 2 nM human C5a, CD15+ granulocytes, read-out: hCD11b IC50. As for the experimental part: Whole blood was collected in sodium heparin tubes and the assay started within 2 hours of the blood draw. The blood was incubated with compounds in 1% DMSO (dimethyl sulfoxide) at room temperature for 10 minutes with gentle rocking. 2 nM of human C5a was then added for 15 minutes at room temperature with gentle rocking. Following the C5a incubation period cells were washed once with cold FACS (fluorescence-activated cell sorting) buffer (phosphate buffered saline+0.5% bovine serum albumin) FITC (fluorescein isothiocyanate) mouse anti-human CD15 and PE-Cy5 (phycoerythrin-cyanine 5) mouse anti-human CD11b antibodies (Becton Dickinson) were gently mixed with the cells and allowed to incubate for 30 minutes on ice protected from the light. Cells were then washed three times with cold FACS buffer. Red blood cells (RBC) were lysed by incubating with BD FACS lysis buffer (Becton Dickinson) for 10 minutes at room temperature. Cells were pelleted and the lysing procedure was repeated until all RBCs were lysed. The remaining leukocytes were resuspended in BD lysis buffer. Samples were acquired on the LSR^11 flow cytometer and 10,000 events of the CD15+ granulocyte population were collected. The CD11b median fluorescence intensity of the CD 15+ cell population was evaluated using FACSDiva software (Becton Dickinson).
As to `CCn1nc(C2CC2)c(Cl)c1N1CCc2nc(-c3c(C)ccc4[nH]nc(C)c34)nc(N3CCC3C)c2C1` (single isomer, unassigned) [Example 70-I, 6-(4-chloro-3-cyclopropyl-1-ethyl-1H-pyrazol-5-yl)-2-(3,5-dimethyl-1H-indazol-4-yl)-4-(2-methylazetidin-1-yl)-5,6,7,8-tetrahydropyrido[4,3-d]pyrimidine], the IC50 is 38 nM.

Still in this test, the particulars now being: Homo sapiens, 2 nM human C5a, CD15+ granulocytes, read-out: hCD11b IC50.
Turning to `Cc1cc(-c2c(C(C)C)ccc3[nH]ncc23)nc2c1CN(c1cc(C3CC3)nn1C)CC2` [Example 46-A, 6-(3-Cyclopropyl-1-methyl-1H-pyrazol-5-yl)-2-(5-isopropyl-1H-indazol-4-yl)-4-methyl-5,6,7,8-tetrahydro-1,6-naphthyridine], the IC50 came out at 1990 nM.

In the case of `Cc1ccc(C(C)C)cc1N1CCc2nc(-c3cccc4[nH]cc(C)c34)nc(N3CCN(CC(N)=O)[C@H](C)C3)c2C1` [Example 24-J, (R)-2-(4-(6-(5-isopropyl-2-methylphenyl)-2-(3-methyl-1H-indol-4-yl)-5,6,7,8-tetrahydropyrido[4,3-d]pyrimidin-4-yl)-2-methylpiperazin-1-yl)acetamide], the IC50 is 423 nM.

For the molecule `CO[C@@H]1CN(c2nc(-c3c(C)ccc4[nH]nc(C)c34)nc3c2CN(c2c(Cl)c(C4CC4)nn2C)CC3)[C@H]1C` (racemic) [Example 69-I, 6-(4-chloro-3-cyclopropyl-1-methyl-1H-pyrazol-5-yl)-2-(3,5-dimethyl-1H-indazol-4-yl)-4-((trans)-methoxy-2-methylazetidin-1-yl)-5,6,7,8-tetrahydropyrido[4,3-d]pyrimidine], the IC50 was found to be 25 nM.

With `Cc1ccc(C(C)C)cc1N1CCc2nc(-c3c(C)ccc4[nH]ncc34)cc(C)c2C1` [Example 41-D, 6-(5-Isopropyl-2-methylphenyl)-4-methyl-2-(5-methyl-1H-indazol-4-yl)-5,6,7,8-tetrahydro-1,6-naphthyridine], the concentration for half-maximal inhibition (IC50) was 153 nM.

On to `Cc1ccc2[nH]nc(C)c2c1-c1nc2c(c(N3CCOC[C@H]3C)n1)CN(c1c(F)c(C3CC3)nn1C)CC2` [Example 76-C, (R)-4-(6-(3-Cyclopropyl-4-fluoro-1-methyl-1H-pyrazol-5-yl)-2-(3,5-dimethyl-1H-indazol-4-yl)-5,6,7,8-tetrahydropyrido[4,3-d]pyrimidin-4-yl)-3-methylmorpholine], for which the IC50 was 46 nM.

Take `Cc1ccc2[nH]nc(C)c2c1-c1nc2c(c(N3CC[C@@H]4OC[C@]4(C)C3)n1)CN(c1c(Cl)c(C3CC3)nn1C)CC2` (racemic) [Example 69-L, (1S*,6S*)-3-(6-(4-chloro-3-cyclopropyl-1-methyl-1H-pyrazol-5-yl)-2-(3,5-dimethyl-1H-indazol-4-yl)-5,6,7,8-tetrahydropyrido[4,3-d]pyrimidin-4-yl)-1-methyl-7-oxa-3-azabicyclo[4.2.0]octane]: the IC50 amounted to 54 nM.

Regarding `CCn1nc(C2CC2)c(Cl)c1N1CCc2nc(-c3c(C)ccc4[nH]nc(C)c34)nc(N3CCC3C)c2C1` (single isomer, unassigned) [Example 70-H, 6-(4-chloro-3-cyclopropyl-1-ethyl-1H-pyrazol-5-yl)-2-(3,5-dimethyl-1H-indazol-4-yl)-4-(2-methylazetidin-1-yl)-5,6,7,8-tetrahydropyrido[4,3-d]pyrimidine], the IC50 stood at 41 nM.

Consider `[2H]C1([2H])c2c(C)cc(-c3c(C)ccc4[nH]ncc34)nc2CCN1c1cc(C(C)C)ccc1C` [Example 43-A, 6-(5-Isopropyl-2-methylphenyl)-4-methyl-2-(5-methyl-1H-indazol-4-yl)-5,6,7,8-tetrahydro(5,5-^2H2)-1,6-naphthyridine], for which the IC50 worked out at 178 nM.
